We go through one compound from patent US20180000727A1, “COMPOSITION AND METHODS TO IMPROVE STABILITY, DOSING, PHARMA[…] PRODUCT SHELF LIFE OF ENDOCANNABINOIDS, PHYTOCANNABINOIDS AND […] CA[…] BY NASAL INHAER” (priority 2015, published 2018).

For series [1] the following is noted: intranasally at 1.0 to 1.3 mg/kg in rats; cited from earlier work.
For series [2] the following is noted: oral administration; cited from earlier work.
Series [3] is described as follows: Twelve months storage, THC degradation to Cannabinol by gas chromatography. The conditions noted are these: twelve months storage at −10 °C in darkness, 5 ml screw top bottles.
Description: Extract was concentrated by vacuum evaporation and percent of THC degradation quantitated by gas chromatograpy.

On to `CCCCCc1cc(O)c2c(c1)OC(C)(C)[C@@H]1CCC(C)=C[C@@H]21` [THC, Delta-9-tetrahydrocannabinol], for which, in series [1], the “analgesic response, time post administration” value is 15 min and the “duration of analgesic response” value was 120 min. In addition, the “oral dose reaching the circulation unchanged” value in series [2] is 10%. For the same compound, in series [3], the “percent degraded to Cannabinol” value was 22.6%.
